Measurements from patent US20110003767A1, “Inhibitors of Acetyl-CoA Carboxylase for Treatment of Neuronal Hypometabolism” (NEUERA PHARMACEUTICALS, INC., priority 2007, published 2011).
Values after ≈ are worked out from the molar mass of the structure shown. “Also recorded” adds a separate entry of the source. Where two headings read alike, the source gives them in different places.

Columns and labels:
[1] = system: plasma beta-hydroxybutyrate (BHB); assay: Mouse pharmacokinetic (PK) study of AC-0417-9: plasma BHB after oral dosing; type: in vivo; details: single po dose of 3 g/kg
Protocol: Purpose: Determine blood levels of ketone bodies after oral dosing of AC-0417-9 (3,3-Dimethylhexanoate, monoglyceride) at different time points in the mouse. Animals: 12 ICR male mice 6 to 7 weeks old were used. Each mouse weighed between 20-30 grams. General Study Design: Animals (housed 3/cage) were acclimated for at least 3 days prior to dosing. Mice were given a single po dose of 3 g/kg. Animals were anesthetized for blood collection at the times 0.5, 1, 2 and 3 hours. Whole blood (˜0.4 mls) was collected via cardiac puncture and collected into sodium heparin (Na Heparin, 1:9 ratio) anticoagulant. Blood was centrifuged for 8 minutes at 13,000 rpm to isolate plasma. The plasma was transferred into pre-labeled, color-coded eppendorf tubes and frozen at −70° C. […] Plasma levels of beta-hydroxybutyrate (BHB) were determined using a beta-hydroxybutyrate detection kit following manufacturer's directions (StanBio Inc.). Materials: Compound, mouse gavage needles, vehicle, Isoflurane, 1 cc syringes w/26 g needles for blood collection, eppendorf tubes for blood collection, eppendorf tubes for plasma storage, centrifuge, container for sample storage, container for plasma shipment w/dry ice. AC-0417-9 is a clear liquid, 100% active compound by weight. […] Levels of BHB continued to rise during the 3 hour time period with highest levels present at the 3 hour time point.

[2] = system: plasma beta-hydroxybutyrate (BHB); assay: Mouse pharmacokinetic (PK) study: plasma BHB after oral (po) and intraperitoneal (ip) dosing of TOFA; type: in vivo; details: for Mean BHB levels: mouse plasma
Protocol: (§1) Purpose: Determine blood levels of ketone bodies after oral (po) and intraperitoneal (ip) dosing of TOFA at different time points in the mouse. Animals: 75 ICR male mice 6 to 7 weeks old were used. Each mouse weighed between 20-30 grams. General Study Design: Animals (housed 3/cage) were acclimated for at least 3 days prior to dosing. Mice were given either a single po dose (ranging from 0.5 mg/kg, to 5 mg/kg) of compound, or a single ip dose (1 mg/kg). Animals were anesthetized for blood collection at the times 0.5, 1, 2 and 3 hours. Whole blood (˜0.4 mls) was collected via cardiac puncture and collected into sodium heparin (Na Heparin, 1:9 ratio) anticoagulant. Blood was centrifuged for 8 minutes at 13,000 rpm to isolate plasma. The plasma was transferred into pre-labeled, color-coded eppendorf tubes and frozen at −70° C. […] Plasma levels of beta-hydroxybutyrate (BHB) were determined using a beta-hydroxybutyrate detection kit following manufacturer's directions (StanBio Inc.). Materials: Compound, mouse gavage needles, vehicle, Isoflurane, 51 1 cc syringes w/26 g needles for blood collection, 63 eppendorf tubes for blood collection, 63 eppendorf tubes for plasma storage, centrifuge, container for sample storage, container for plasma shipment w/dry ice. AC-8632 (5-(tetradecyloxy)-2-furan-carboxylic acid (TOFA)) is a white crystalline solid, 100% active compound by weight. It is insoluble in aqueous solutions. It is soluble in ethanol (1 mg/ml), DMSO (2 mg/ml) and DMF (10 mg/ml). For maximum solubility in aqueous buffers, AC-8632 should first be dissolved in DMF and then diluted with the aqueous buffer of choice. AC-8632 was solubilized at a concentration of 0.5 mg/ml in a 1:1 solution of DMF::PBS (pH 7.2). For ip treatment, AC-8632 was mixed with DMSO at 2 mg/ml. Results: AC-8632 (TOFA) elevated serum BHB levels at each dose from 0.5 mg-kg to 5 mg/kg. Levels of BHB continued to rise during the 3 hour time period with highest levels present at the 3 hour time point. […] Both po and ip dosing led to elevation of plasma BHB at the 3 hour time point.

[3] = Solubility of AC-8632; type: physicochemical; details: for solubility: organic solvent or mixture
Protocol: as §1

[4] = system: MPTP lesioned mice; assay: Neuroprotective effects of an ACC inhibitor in MPTP lesioned mice; type: in vivo; details: MPTP lesioned C57BL6 mice, oral gavage 0.001-5 mg/kg/day
Protocol: Neuroprotective effects of an ACC inhibitor in MPTP lesioned mice. 1-methyl-4-phenyl-1,2,3,6-tetrahydropyridine (MPTP), blocks complex I (NADH-ubiquinone oxidoreductase) of the mitochondrial electron transport chain, and causes typical symptoms of Parkinson's disease (PD) and the loss of dopaminergic neurons. C57BL6 mice receive daily orally gavage of CP-610431 at doses ranging from 0.001-5 mg/kg/day for seven days before they are lesioned with MPTP. During the 7 days of MPTP treatment animals will continue treatment with compound 1 or with a placebo. At the end of seven days animals are tested for behavioral effects of MPTP treatment and histopathology is performed.
Three groups of 10 animals are used for this experiment. Group 1 is treated with CP-610431 and lesioned with MPTP, Group 2 is treated with placebo and lesioned with MPTP, and Group 3 is treated with placebo and sham lesioned. After seven days of MPTP treatment behavior and motor skills are tested on all mice. Three tests are used to assess protective behavioral effects: Open Field behavior, Beam Walking test, and Rota Rod test. […]
Dopamine histopathology is immunohistochemically evaluated comparing tyrosine-hydroxylase-positive (TH+) neurons in the substantia nigra density of TH+ nerve terminals in the striatum on the lesioned side of drug treated and control animals. […]

[5] = system: Acetyl-CoA carboxylase (ACC), CT (carboxyltranferase) reaction; details: cited from earlier work

SMILES: CCCC(C)(C)CC(=O)OCC(O)CO (stereo not shown) [AC-0417-9, 3,3-Dimethylhexanoate, monoglyceride]
- serum BHB levels (effect in words) [1]: elevation; also recorded: elevate
- time point of highest BHB levels ([1]; 3 hour time period): 3 h

SMILES: CCCCCCCCCCCCCCOc1ccc(C(=O)O)o1 [AC-8632, 5-(tetradecyloxy)-2-furan-carboxylic acid]
- Mean BHB levels ([2]; 0.5 mg/kg po, 0 hr): 0.1353 mM
- Mean BHB levels ([2]; 0.5 mg/kg po, 0.5 hr): 0.2087 mM
- Mean BHB levels ([2]; 0.5 mg/kg po, 1 hr): 0.236 mM
- Mean BHB levels ([2]; 0.5 mg/kg po, 2 hr): 0.2427 mM
- Mean BHB levels ([2]; 0.5 mg/kg po, 3 hr): 0.3473 mM
- Mean BHB levels ([2]; 1 mg/kg ip, 0 hr): 0.1353 mM
- Mean BHB levels ([2]; 1 mg/kg ip, 0.5 hr): 0.1723 mM
- Mean BHB levels ([2]; 1 mg/kg ip, 1 hr): 0.177 mM
- Mean BHB levels ([2]; 1 mg/kg ip, 2 hr): 0.209 mM
- Mean BHB levels ([2]; 1 mg/kg ip, 3 hr): 0.2163 mM
- Mean BHB levels ([2]; 1 mg/kg po, 0 hr): 0.1353 mM
- Mean BHB levels ([2]; 1 mg/kg po, 0.5 hr): 0.2093 mM
- Mean BHB levels ([2]; 1 mg/kg po, 1 hr): 0.2187 mM
- Mean BHB levels ([2]; 1 mg/kg po, 2 hr): 0.2827 mM
- Mean BHB levels ([2]; 1 mg/kg po, 3 hr): 0.2973 mM
- Mean BHB levels ([2]; 2 mg/kg po, 0 hr): 0.1353 mM
- Mean BHB levels ([2]; 2 mg/kg po, 0.5 hr): 0.2153 mM
- Mean BHB levels ([2]; 2 mg/kg po, 1 hr): 0.1497 mM
- Mean BHB levels ([2]; 2 mg/kg po, 2 hr): 0.2127 mM
- Mean BHB levels ([2]; 2 mg/kg po, 3 hr): 0.339 mM
- Mean BHB levels ([2]; 5 mg/kg po, 0 hr): 0.1353 mM
- Mean BHB levels ([2]; 5 mg/kg po, 0.5 hr): 0.106 mM
- Mean BHB levels ([2]; 5 mg/kg po, 1 hr): 0.111 mM
- Mean BHB levels ([2]; 5 mg/kg po, 2 hr): 0.323 mM
- Mean BHB levels ([2]; 5 mg/kg po, 3 hr): 0.259 mM
- difference of BHB levels by dose or by route of administration ([2]; mouse, 0.5-5 mg/kg po, 1 mg/kg ip): did not differ significantly
- time point of highest BHB levels ([2]; mouse, 3 hour time period, po and ip): 3 h
- serum BHB levels (effect in words) ([2]; mouse, each dose from 0.5 to 5 mg/kg): elevated
- solubility ([3]; DMF, read-out: solubility in DMF): 10 mg/mL (≈ 30.8 mM)
- solubility ([3]; DMSO, read-out: solubility in DMSO): 2 mg/mL (≈ 6.16 mM)
- solubility in aqueous solutions ([3]; aqueous solutions): insoluble
- solubility ([3]; ethanol, read-out: solubility in ethanol): 1 mg/mL (≈ 3.08 mM)

SMILES: CCN(CC)C(=O)[C@@H]1CCCN(C2CCN(C(=O)c3c4ccccc4cc4ccccc34)CC2)C1 [CP-610431, R-1′-(anthracene-9-carbonyl)-N,N-diethyl-1,4′-bipiperidine-3-carboxamide]
- behavior and motor skills (Open Field, Beam Walking, Rota Rod) [4]: Improved
- number of TH+ neurons ([4]; substantia nigra): Increased

SMILES: O=C(c1c2ccccc2cc2ccccc12)N1CCC(N2CCC[C@@H](C(=O)N3CCOCC3)C2)CC1 [CP-640186, [(3R)-1-[1-(anthracene-9-carbonyl)piperidin-4-yl]piperidin-3-yl]-morpholin-4-ylmethanone]
- inhibition of the CT reaction of ACC (in words) [5]: potent, reversible, isozyme-nonselective inhibitors
